Assay results from US8367873B2, “Phenyl-substituted bicyclooctane-1,3-dione derivatives” (Bayer Cropscience AG, priority 2008, dated 2013).

Columns and labels:
Type in all cases: in vivo
Alopecurus myosuroides [1] = experiment: Herbicidal post-emergence action; settings: post-emergence method, 80 g/ha
Method in brief: (§1)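 Post-emergence spray test: wettable-powder formulations are applied at different amounts to one-leaf-stage plants in 600 l/ha water containing 0.2% wetting agent. After roughly three weeks in the greenhouse, percent effect is rated visually relative to untreated controls.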

Lolium multiflorum [2] = experiment: Herbicidal post-emergence action; settings: post-emergence method, 80 g/ha
Method in brief: as §1

Echinocloa crus-galli [3] = experiment: Herbicidal post-emergence action; settings: post-emergence method, 80 g/ha
Method in brief: as §1

Setaria viridis [4] = experiment: Herbicidal post-emergence action; settings: post-emergence method, 80 g/ha
Method in brief: as §1

[5] = test system: monocotylidonous and dicotylidonous weed and crop plants; experiment: Herbicidal pre-emergence action (other test plants); settings: pre-emergence method, 80 g/ha, greenhouse, visual assessment vs untreated controls
Source text: (§2) Seeds of monocotylidonous and dicotylidonous weed and crop plants are placed in sandy loam in wood fibre pots and covered with soil. The test compounds, formulated in the form of wettable powders (WP), are then, as an aqueous suspension with a water application rate of 600 l/ha (converted), with 0.2% of wetting agent added, applied to the surface of the covering soil in different amounts.
(§3) After the treatment, the pots are placed in a greenhouse and kept under good growth conditions for the test plants. The visual assessment of the emergence damage on the test plants is carried out after a trial period of three weeks by comparison with the untreated controls (herbicidal effect in percent: 100% effect=the plants have died, 0% effect=like control plants).

[6] = test system: monocotylidonous and dicotylidonous weed and crop plants; experiment: Herbicidal post-emergence action (other test plants); settings: post-emergence method, 80 g/ha
Method in brief: as §1

Alopecurus myosuroides [7] = experiment: Herbicidal pre-emergence action; settings: pre-emergence method, 80 g/ha, greenhouse, visual assessment vs untreated controls
Source text: as §2, §3

Lolium multiflorum [8] = experiment: Herbicidal pre-emergence action; settings: pre-emergence method, 80 g/ha, greenhouse, visual assessment vs untreated controls
Source text: as §2, §3

Echinocloa crus-galli [9] = experiment: Herbicidal pre-emergence action; settings: pre-emergence method, 80 g/ha, greenhouse, visual assessment vs untreated controls
Source text: as §2, §3

Setaria viridis [10] = experiment: Herbicidal pre-emergence action; settings: pre-emergence method, 80 g/ha, greenhouse, visual assessment vs untreated controls
Source text: as §2, §3

Row | SMILES | herbicidal effect against ALOMY (Alopecurus myosuroides) (Alopecurus myosuroides [1]) | herbicidal effect against LOLMU (Lolium multiflorum) (Lolium multiflorum [2]) | herbicidal effect against ECHCG (Echinochloa crus-galli) (Echinocloa crus-galli [3]) | herbicidal effect against SETVI (Setaria viridis) (Setaria viridis [4]) | herbicidal effect AVEFA [5] | herbicidal effect against AVEFA (Avena fatua) [6] | herbicidal effect ALOMY (Alopecurus myosuroides [7]) | herbicidal effect LOLMU (Lolium multiflorum [8]) | herbicidal effect ECHCG (Echinocloa crus-galli [9]) | herbicidal effect SETVI (Setaria viridis [10])
1 | CCc1cc(C)cc(CC)c1C1=C(O)C2CC3(COC(C)O3)CC2C1=O (mixture of isomers) [I-a-7] | 90% | 100% | 100% | 90% | 80% | 60% | 100% | 90% | 70% | 70%
2 | CCc1cc(C)cc(CC)c1C1=C(O)C2CC3(CC2C1=O)OC(C)CC(C)O3 (mixture of isomers) [I-a-12] | 100% | 100% | 100% | 100% | 80% | 100% | 100% | 100% | 100% | 90%
3 | CCc1cc(C)cc(CC)c1C1=C(O)C2CC3(CC2C1=O)OCCS3 (mixture of isomers) [I-a-35] | 100% | 100% | 100% | 90% | 80% | 80% | 80% | 100% | 70% | 70%
4 | CCc1cc(C)cc(CC)c1C1=C(OC(=O)C(C)(C)C)C2CC3(CC2C1=O)OCCCS3 (mixture of isomers) [I-b-20] | 0% | 60% | 100% | 0% | 90% | 30% | 100% | 100% | 80% | 90%
5 | CCc1cc(C)cc(CC)c1C1=C(OC(=O)C(C)C)C2CC3(CC2C1=O)OCCS3 (mixture of isomers) [I-b-21] | 90% | 100% | 100% | 90% | 80% | 90% | 80% | 100% | 80% | 20%
6 | CCC(C)(C)C(=O)OC1=C(c2c(C)cc(C)cc2C)C(=O)C2CC3(COC(C)(C)O3)CC12 (mixture of isomers) [I-b-45] | 80% | 90% | 90% | 40% | 40% | 0% | 90% | 60% | 20% | 30%
7 | CCOC(=O)OC1=C(c2c(CC)cc(C)cc2CC)C(=O)C2CC3(CC12)OCC(C)(C)CO3 (racemic) [I-c-6] | – | – | – | – | 10% | – | 50% | 80% | 90% | 60%
8 | CCOC(=O)OC1=C(c2c(C)cc(C)cc2CC)C(=O)C2CC3(CC12)OCCO3 (racemic) [I-c-71] | 80% | 100% | – | 100% | 70% | 90% | 70% | 100% | 100% | 90%
9 | Cc1cc(C)c(C2=C(O)C3CC4(CC3C2=O)OCC=CCO4)c(C)c1 (centres unmarked) [I-a-41] | 100% | 100% | 90% | 100% | 60% | 40% | 60% | 100% | 50% | –
10 | CCc1cc(C)cc(CC)c1C1=C(OC(=O)C(C)C)C2CC3(CC2C1=O)OC(C)CC(C)O3 (centres unmarked) [I-b-15] | 100% | 100% | 100% | 100% | 50% | 90% | 80% | 80% | 100% | –
11 | CCc1cc(C)cc(CC)c1C1=C(OC(=O)C(C)(C)C)C2CC3(CC2C1=O)OCCCO3 (centres unmarked) [I-b-27] | 100% | 100% | 100% | 100% | 70% | 100% | – | 100% | 100% | 70%
12 | CCc1cc(C)cc(CC)c1C1=C(OC(=O)C(C)C)C2CC3(CC2C1=O)OCCCO3 (centres unmarked) [I-b-29] | 100% | 100% | 100% | 100% | 70% | 90% | – | 100% | 100% | 80%
13 | Cc1cc(C)c(C2=C(OC(=O)C(C)C)C3CC4(CC3C2=O)OCC=CCO4)c(C)c1 (centres unmarked) [I-b-42] | 100% | 100% | 100% | 100% | 70% | 80% | – | 100% | 60% | 90%
14 | CCOC(=O)OC1=C(c2c(CC)cc(C)cc2CC)C(=O)C2CC3(CC12)OCC(OCc1ccccc1)CO3 (centres unmarked) [I-c-28] | 100% | 100% | 100% | 100% | 60% | 100% | 90% | – | 100% | 50%
15 | C=C1CC2C(=O)C(c3c(C)cc(C)cc3OC)=C([O-])C2C1.[Na+] (centres unmarked) [I-f-22] | 30% | 80% | 100% | 100% | 70% | 40% | 80% | 80% | – | 100%
